For 17 molecules, IC50 results are on record in patent US11884661B2, “3-substituted propionic acids as αV integrin inhibitors” (BRISTOL-MYERS SQUIBB COMPANY, priority 2016, dated 2024).

Molecules are shown by their SMILES. pIC50: −log10 of the molar value.

One experiment deals with human αVβ8 (Homo sapiens, UniProt P06756+P26012). The experiment can be described thus: human αVβ8 HTRF binding assay. As for the experimental part:
(§1) All binding assays used the HTRF (homogeneous time resolved fluorescence) technology from Cisbio International, therefore all assays are described as HTRF binding assays. The assay results for the Examples are listed above together with the characterization data. The HTRF binding assays are established for the following integrins: human αVβ6, human αVβ1, human αVβ3, human αVβ5, and human αVβ8. All assays used the following assay buffer: 20 mM Tris, pH 7.4, 1 mM MgCl2, 1 mM MnCl2, 0.01% Tween 20, and 0.01% BSA. Alternatively, a SPA-based assay was used for evaluation of receptor binding. […]

Another experiment has as its target T1, human αVβ6 (Homo sapiens, UniProt P06756+P18564).
T1 construct: purchased R & D systems 3817-AV
The experiment can be described thus: human αVβ6 HTRF binding assay. The conditions noted are these: recombinant human αVβ6 integrin, FITC-conjugated fibronectin. Summed up:
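Biotinylated recombinant αVβ6 (1.25 nM final) incubated with FITC-fibronectin (5 nM) 1 h at RT, then streptavidin-terbium (0.625 nM) added and incubated overnight at RT in the dark before HTRF read. Buffer: 20 mM Tris pH 7.4, 1 mM MgCl2, 1 mM MnCl2, 0.01% Tween 20, 0.01% BSA.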
(In TR-FRET formats the signal depends on donor and acceptor labels being close together.)

Another experiment has as its target human αVβ5 (Homo sapiens, UniProt P06756+P18084). The experiment can be described thus: human αVβ5 HTRF binding assay. As for the experimental part:
as §1

Another experiment addresses human αVβ3 (Homo sapiens, UniProt P05106+P06756). The experiment can be described thus: human αVβ3 HTRF binding assay. As for the experimental part:
(§2) All binding assays used the HTRF (homogeneous time resolved fluorescence) technology from Cisbio International, therefore all assays are described as HTRF binding assays. The assay results for the Examples are listed above together with the characterization data. The HTRF binding assays are established for the following integrins: human αVβ6, human αVβ1, human αVβ3, human αVβ5, and human αVβ8. All assays used the following assay buffer: 20 mM Tris, pH 7.4, 1 mM MgCl2, 1 mM MnCl2, 0.01% Tween 20, and 0.01% BSA. Alternatively, a SPA-based assay was used for evaluation of receptor binding.
(§3) The following describes the components and a representative procedure for the human αVβ6 HTRF binding assay: Recombinant human αVβ6 Integrin (R & D systems, 3817-AV) was biotinylated. Biotinylated human αVβ6 Integrin was added to assay vessel at a final concentration of 1.25 nM. FITC-conjugated fibronectin (Cytoskeleton, FNR02) was then added at the final concentration of 5 nM. The mixture was centrifuged at 600 rpm for three minutes using Thermo Fisher Heraeus Multifuge X3 centrifuge and then incubated at RT for an hour. Streptavidin Terbium (Cisbio international 610STLB) was then added at the final concentration of 0.625 nM. The resulting mixture was centrifuged at 600 rpm for three minutes using Thermo Fisher Heraeus Multifuge X3 centrifuge and then incubated at room temperature overnight in dark before reading HTRF signals.

Another experiment addresses human αVβ1 (Homo sapiens, UniProt P05556+P06756). The experiment in a line: human αVβ1 HTRF binding assay. As for the experimental part: as §2, §3

human αVβ1, sequence (P06756 31-992 limits assumed): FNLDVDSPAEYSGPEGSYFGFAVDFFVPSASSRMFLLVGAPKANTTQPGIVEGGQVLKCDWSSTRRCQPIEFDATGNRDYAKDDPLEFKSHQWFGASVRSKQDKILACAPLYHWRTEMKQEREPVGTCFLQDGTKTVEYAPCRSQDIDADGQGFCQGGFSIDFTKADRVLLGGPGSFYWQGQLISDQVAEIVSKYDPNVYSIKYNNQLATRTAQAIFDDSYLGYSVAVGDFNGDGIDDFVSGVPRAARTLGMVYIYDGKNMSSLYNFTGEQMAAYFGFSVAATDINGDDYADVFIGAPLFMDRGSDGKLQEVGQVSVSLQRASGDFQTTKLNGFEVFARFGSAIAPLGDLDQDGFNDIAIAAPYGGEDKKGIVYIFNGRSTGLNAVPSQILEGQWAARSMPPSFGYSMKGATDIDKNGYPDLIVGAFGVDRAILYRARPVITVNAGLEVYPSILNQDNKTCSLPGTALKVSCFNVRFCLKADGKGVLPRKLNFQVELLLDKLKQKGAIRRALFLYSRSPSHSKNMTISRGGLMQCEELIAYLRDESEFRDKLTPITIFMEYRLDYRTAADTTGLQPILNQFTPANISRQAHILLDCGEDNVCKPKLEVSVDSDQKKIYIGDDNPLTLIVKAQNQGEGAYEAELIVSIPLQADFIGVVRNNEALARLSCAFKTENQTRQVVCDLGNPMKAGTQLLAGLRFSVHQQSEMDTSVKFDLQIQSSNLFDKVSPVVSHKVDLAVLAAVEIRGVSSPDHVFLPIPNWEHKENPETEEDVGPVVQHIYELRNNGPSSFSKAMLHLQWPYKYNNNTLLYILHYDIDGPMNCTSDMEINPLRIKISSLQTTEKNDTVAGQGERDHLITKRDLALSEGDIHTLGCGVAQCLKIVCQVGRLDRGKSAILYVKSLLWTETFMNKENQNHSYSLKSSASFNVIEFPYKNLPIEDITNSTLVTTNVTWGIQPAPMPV
human αVβ1, sequence (P05556 21-728 limits assumed): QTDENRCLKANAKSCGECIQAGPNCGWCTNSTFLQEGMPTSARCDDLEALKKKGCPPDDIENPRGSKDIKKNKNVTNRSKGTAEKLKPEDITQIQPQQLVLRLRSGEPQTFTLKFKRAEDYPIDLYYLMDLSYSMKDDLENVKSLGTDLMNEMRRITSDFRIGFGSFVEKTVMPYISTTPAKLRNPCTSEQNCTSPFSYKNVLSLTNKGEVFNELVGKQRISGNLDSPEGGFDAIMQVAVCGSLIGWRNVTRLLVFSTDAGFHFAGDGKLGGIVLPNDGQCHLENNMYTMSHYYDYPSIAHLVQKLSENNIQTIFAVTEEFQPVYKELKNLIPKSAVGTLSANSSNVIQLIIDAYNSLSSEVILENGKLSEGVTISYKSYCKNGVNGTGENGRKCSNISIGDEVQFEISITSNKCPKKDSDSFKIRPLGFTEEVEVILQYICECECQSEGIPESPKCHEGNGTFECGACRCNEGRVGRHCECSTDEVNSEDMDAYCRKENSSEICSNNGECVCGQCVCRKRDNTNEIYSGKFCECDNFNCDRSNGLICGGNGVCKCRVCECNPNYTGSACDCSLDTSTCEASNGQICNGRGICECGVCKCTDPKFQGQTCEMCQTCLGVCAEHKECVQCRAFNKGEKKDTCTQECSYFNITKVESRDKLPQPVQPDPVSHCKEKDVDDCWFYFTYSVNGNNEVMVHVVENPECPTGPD
T1 sequence (P06756 31-992 limits assumed): as the sequence (P06756 31-992 limits assumed) above
T1 sequence (P18564 22-707 limits assumed): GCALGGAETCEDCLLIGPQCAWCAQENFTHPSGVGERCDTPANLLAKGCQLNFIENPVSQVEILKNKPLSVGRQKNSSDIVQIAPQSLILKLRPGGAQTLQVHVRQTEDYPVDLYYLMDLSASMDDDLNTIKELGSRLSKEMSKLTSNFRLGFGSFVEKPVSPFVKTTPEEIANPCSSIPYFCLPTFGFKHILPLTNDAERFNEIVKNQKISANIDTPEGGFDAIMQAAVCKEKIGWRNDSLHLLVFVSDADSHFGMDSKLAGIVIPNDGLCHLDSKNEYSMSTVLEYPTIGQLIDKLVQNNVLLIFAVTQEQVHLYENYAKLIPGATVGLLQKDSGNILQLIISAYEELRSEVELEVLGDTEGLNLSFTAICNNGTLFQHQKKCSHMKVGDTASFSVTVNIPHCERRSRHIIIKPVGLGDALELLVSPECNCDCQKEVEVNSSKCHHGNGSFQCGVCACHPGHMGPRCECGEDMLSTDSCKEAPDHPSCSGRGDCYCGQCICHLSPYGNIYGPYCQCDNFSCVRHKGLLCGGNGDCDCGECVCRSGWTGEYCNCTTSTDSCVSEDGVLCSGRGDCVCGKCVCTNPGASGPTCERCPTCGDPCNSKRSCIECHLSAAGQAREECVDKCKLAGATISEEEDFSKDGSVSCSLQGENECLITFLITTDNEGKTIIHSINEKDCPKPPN
human αVβ5, sequence (P06756 31-992 limits assumed): as the sequence (P06756 31-992 limits assumed) above
human αVβ5, sequence (P18084 24-719 limits assumed): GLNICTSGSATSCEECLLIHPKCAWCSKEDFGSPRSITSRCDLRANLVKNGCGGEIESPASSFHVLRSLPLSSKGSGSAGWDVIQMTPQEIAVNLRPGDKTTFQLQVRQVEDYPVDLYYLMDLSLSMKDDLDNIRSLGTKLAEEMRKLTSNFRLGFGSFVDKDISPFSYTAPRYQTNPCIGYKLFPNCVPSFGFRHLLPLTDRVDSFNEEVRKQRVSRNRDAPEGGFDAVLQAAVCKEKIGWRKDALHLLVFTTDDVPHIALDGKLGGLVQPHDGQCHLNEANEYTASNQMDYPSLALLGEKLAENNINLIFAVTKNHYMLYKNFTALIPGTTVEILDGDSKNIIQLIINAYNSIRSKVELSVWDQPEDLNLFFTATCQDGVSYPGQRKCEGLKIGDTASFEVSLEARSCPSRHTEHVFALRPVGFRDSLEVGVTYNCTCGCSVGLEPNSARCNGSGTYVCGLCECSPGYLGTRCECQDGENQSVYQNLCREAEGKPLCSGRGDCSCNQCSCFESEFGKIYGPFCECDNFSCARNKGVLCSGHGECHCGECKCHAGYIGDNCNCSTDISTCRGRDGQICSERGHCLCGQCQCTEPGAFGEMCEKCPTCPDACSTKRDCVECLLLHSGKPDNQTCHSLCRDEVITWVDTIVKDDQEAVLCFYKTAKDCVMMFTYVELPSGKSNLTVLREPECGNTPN
human αVβ3, sequence (P06756 31-992 limits assumed): as the sequence (P06756 31-992 limits assumed) above
human αVβ3, sequence (P05106 27-718 limits assumed): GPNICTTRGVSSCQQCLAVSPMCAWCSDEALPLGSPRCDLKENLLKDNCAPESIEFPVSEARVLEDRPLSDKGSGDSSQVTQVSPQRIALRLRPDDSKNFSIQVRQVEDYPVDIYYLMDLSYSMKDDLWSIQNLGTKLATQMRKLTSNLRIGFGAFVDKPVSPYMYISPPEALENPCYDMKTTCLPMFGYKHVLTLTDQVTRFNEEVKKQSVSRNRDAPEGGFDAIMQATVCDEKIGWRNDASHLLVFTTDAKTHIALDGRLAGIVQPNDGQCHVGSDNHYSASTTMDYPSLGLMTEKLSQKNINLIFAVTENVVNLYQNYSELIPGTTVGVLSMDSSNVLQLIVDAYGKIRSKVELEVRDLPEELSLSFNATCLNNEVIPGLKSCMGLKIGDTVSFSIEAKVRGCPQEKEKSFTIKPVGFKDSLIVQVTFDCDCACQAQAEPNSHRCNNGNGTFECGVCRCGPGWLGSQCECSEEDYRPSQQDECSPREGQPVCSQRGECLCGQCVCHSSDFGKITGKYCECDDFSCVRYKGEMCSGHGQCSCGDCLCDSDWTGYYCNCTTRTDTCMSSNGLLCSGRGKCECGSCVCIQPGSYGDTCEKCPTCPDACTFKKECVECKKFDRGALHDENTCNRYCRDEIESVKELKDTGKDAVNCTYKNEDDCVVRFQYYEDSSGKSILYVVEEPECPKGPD
human αVβ8, sequence (P06756 31-992 limits assumed): as the sequence (P06756 31-992 limits assumed) above
human αVβ8, sequence (P26012 43-684 limits assumed): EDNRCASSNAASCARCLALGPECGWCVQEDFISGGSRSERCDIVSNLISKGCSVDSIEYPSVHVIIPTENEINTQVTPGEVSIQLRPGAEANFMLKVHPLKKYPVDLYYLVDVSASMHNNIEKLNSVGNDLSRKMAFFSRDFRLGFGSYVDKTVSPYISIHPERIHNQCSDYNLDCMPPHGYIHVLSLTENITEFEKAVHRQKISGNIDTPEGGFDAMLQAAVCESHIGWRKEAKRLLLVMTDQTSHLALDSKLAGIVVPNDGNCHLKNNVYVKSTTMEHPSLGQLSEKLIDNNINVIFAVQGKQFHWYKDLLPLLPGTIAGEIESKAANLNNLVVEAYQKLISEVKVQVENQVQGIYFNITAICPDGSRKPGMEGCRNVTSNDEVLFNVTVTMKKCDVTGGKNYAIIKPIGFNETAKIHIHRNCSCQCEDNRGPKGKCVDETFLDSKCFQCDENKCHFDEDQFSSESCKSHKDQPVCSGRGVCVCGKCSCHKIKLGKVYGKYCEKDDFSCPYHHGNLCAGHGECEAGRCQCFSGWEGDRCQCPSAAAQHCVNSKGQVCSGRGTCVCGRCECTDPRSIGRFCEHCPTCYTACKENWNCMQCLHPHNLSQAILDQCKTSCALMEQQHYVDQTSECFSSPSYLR

What is called pIC50 is the negative decadic logarithm of the IC50, by convention in mol/L. As to `COc1ccc(C(CC(=O)O)n2ccc(CCCCc3ccc4c(n3)NCCC4)n2)cn1` (racemic) [Example 1, (±)-3-(6-Methoxypyridin-3-yl)-3-(3-(4-(5,6,7,8-tetrahydro-1,8-naphthyridin-2-yl)butyl)-1H-pyrazol-1-yl)propanoic acid], the pIC50 is 6.58 on human αVβ8, 8.22 at human αVβ6, 8.82 at human αVβ5 and 8.62 at human αVβ3.

As for `COc1ccc(C(CC(=O)O)n2ccc(CCCc3ccc4c(n3)NCCC4)n2)cn1` (racemic) [Example 2, (±)-3-(6-Methoxypyridin-3-yl)-3-(3-(3-(5,6,7,8-tetrahydro-1,8-naphthyridin-2-yl)propyl)-1H-pyrazol-1-yl)propanoic acid], the pIC50 on human αVβ8 is 6.38; at human αVβ6, 8.17; at human αVβ5, 9.47; at human αVβ3, 8.57.

As for `CCOc1ncc(C(CC(=O)O)n2ccc(CCCc3ccc4c(n3)NCCC4)n2)cn1` (racemic) [Example 27, (±)-3-(2-Ethoxypyrimidin-5-yl)-3-(3-(3-(5,6,7,8-tetrahydro-1,8-naphthyridin-2-yl)propyl)-1H-pyrazol-1-yl)propanoic acid], the pIC50 at human αVβ8 is 5.74; at human αVβ6, 8.03; on human αVβ5 it was 9.12; on human αVβ3, 8.64; on human αVβ1 it was 6.84.

With `O=C(O)CC(c1cnc2ccccc2c1)n1ccc(CCCc2ccc3c(n2)NCCC3)n1` (racemic) [Example 29, (±)-3-(Quinolin-3-yl)-3-(3-(3-(5,6,7,8-tetrahydro-1,8-naphthyridin-2-yl)propyl)-1H-pyrazol-1-yl)propanoic acid], the pIC50 is 5.54 on human αVβ8; 7.95 at human αVβ6; 8.19 on human αVβ5; 8.77 on human αVβ3; 6.54 at human αVβ1.

Consider `O=C(O)CC(c1ccc2c(c1)CCO2)n1ccc(CCCc2ccc3c(n2)NCCC3)n1` (racemic) [Example 30, (±)-3-(2,3-Dihydrobenzofuran-5-yl)-3-(3-(3-(5,6,7,8-tetrahydro-1,8-naphthyridin-2-yl)propyl)-1H-pyrazol-1-yl)propanoic acid], for which the pIC50 is 5.70 on human αVβ8; 8.24 at human αVβ6; 6.64 on human αVβ5; 7.96 on human αVβ3; 7.00 at human αVβ1.

As for `Cc1cc(C)n(-c2cccc(C(CC(=O)O)n3ccc(CCCc4ccc5c(n4)NCCC5)n3)c2)n1` (racemic) [Example 31, (±)-3-(3-(3,5-Dimethyl-1H-pyrazol-1-yl)phenyl)-3-(3-(3-(5,6,7,8-tetrahydro-1,8-naphthyridin-2-yl)propyl)-1H-pyrazol-1-yl)propanoic acid], the pIC50 was 5.48 at human αVβ8, 8.28 at human αVβ6, 8.12 at human αVβ3 and 7.20 at human αVβ1.

On to `O=C(O)CC(c1cccc(N2CCOCC2)c1)n1ccc(CCCc2ccc3c(n2)NCCC3)n1` (racemic) [Example 32, (±)-3-(3-Morpholinophenyl)-3-(3-(3-(5,6,7,8-tetrahydro-1,8-naphthyridin-2-yl)propyl)-1H-pyrazol-1-yl)propanoic acid], for which the pIC50 at human αVβ8 is 5.57; at human αVβ6, 8.37; on human αVβ3, 8.26; on human αVβ1, 7.37.

As for `COc1ccc(C(CC(=O)O)n2ccc(-c3cccc(-c4ccc5c(n4)NCCC5)c3)n2)cn1` (racemic) [Example 46, (±)-3-(6-Methoxypyridin-3-yl)-3-(3-(3-(5,6,7,8-tetrahydro-1,8-naphthyridin-2-yl)phenyl)-1H-pyrazol-1-yl)propanoic acid], the pIC50 on human αVβ8 is 5.09; on human αVβ6 it was 7.55; on human αVβ5, 7.96; at human αVβ3 it was 7.85.

With `COc1ccc(C(CC(=O)O)n2ccc(CCCc3ccc4c(n3)NCCC4)n2)cn1` (single isomer, unassigned) [Example 3, 3-(6-Methoxypyridin-3-yl)-3-(3-(3-(5,6,7,8-tetrahydro-1,8-naphthyridin-2-yl)propyl)-1H-pyrazol-1-yl)propanoic acid], the pIC50 is 5.95 at human αVβ8; 8.49 at human αVβ6; 7.96 at human αVβ5; 8.49 at human αVβ3; 7.19 at human αVβ1.

With `COc1ccc(C(CC(=O)O)c2nc(CCCCc3ccc4c(n3)NCCC4)cs2)cn1` (single isomer, unassigned) [Example 14, 3-(6-Methoxypyridin-3-yl)-3-(4-(4-(5,6,7,8-tetrahydro-1,8-naphthyridin-2-yl)butyl)thiazol-2-yl)propanoic acid], the pIC50 on human αVβ8 is 6.29; at human αVβ6, 8.68; at human αVβ5 it was 7.96; on human αVβ3, 8.72; at human αVβ1 it was 6.62.

Consider `COc1ccc(C(CC(=O)O)c2nc(CCCc3ccc4c(n3)NCCC4)cs2)cn1` (single isomer, unassigned) [Example 15, 3-(6-Methoxypyridin-3-yl)-3-(4-(3-(5,6,7,8-tetrahydro-1,8-naphthyridin-2-yl)propyl)thiazol-2-yl)propanoic acid], for which the pIC50 was 6.48 on human αVβ8, 9.15 on human αVβ6, 8.85 on human αVβ3 and 7.26 on human αVβ1.

With `COc1ccc(C(CC(=O)O)c2nc(CCCCc3ccc4c(n3)NCCC4)cs2)cc1F` (single isomer, unassigned) [Example 37, 3-(3-Fluoro-4-methoxyphenyl)-3-(4-(4-(5,6,7,8-tetrahydro-1,8-naphthyridin-2-yl)butyl)thiazol-2-yl)propanoic acid], the pIC50 at human αVβ8 is 6.06; on human αVβ6 it was 8.70; at human αVβ5, 8.96; at human αVβ3, 8.77; on human αVβ1, 6.80.

In the case of `COc1ccc(C(CC(=O)O)c2nc(CCCc3ccc4c(n3)NCCC4)cs2)cc1F` (single isomer, unassigned) [Example 38, 3-(3-Fluoro-4-methoxyphenyl)-3-(4-(3-(5,6,7,8-tetrahydro-1,8-naphthyridin-2-yl)propyl)thiazol-2-yl)propanoic acid], the pIC50 was 6.07 on human αVβ8, 8.68 on human αVβ6, 8.64 on human αVβ3 and 7.18 on human αVβ1.

Turning to `COc1ccc(C(CC(=O)O)c2ncc(CCCCc3ccc4c(n3)NCCC4)s2)cc1F` (single isomer, unassigned) [Example 40], the pIC50 on human αVβ8 is 5.59; at human αVβ6, 7.77; at human αVβ5 it was 8.00; at human αVβ3 it was 7.55.

As for `COc1cncc(C(CC(=O)O)n2nccc2CCCc2ccc3c(n2)NCCC3)c1` (single isomer, unassigned) [Example 63, 3-(5-methoxypyridin-3-yl)-3-(5-(3-(5,6,7,8-tetrahydro-1,8-naphthyridin-2-yl)propyl)-1H-pyrazol-1-yl)propanoic acid], the pIC50 on human αVβ8 was 6.11; at human αVβ6, 7.89; at human αVβ5 it was 9.06; on human αVβ3, 8.10.

Regarding `COc1ccc([C@H](CC(=O)O)N2CCC(CCCc3ccc4c(n3)NCCC4)C2)cn1` (stereo partly drawn) [Example 21, (3S)-3-(6-Methoxypyridin-3-yl)-3-(3-(3-(5,6,7,8-tetrahydro-1,8-naphthyridin-2-yl)propyl)pyrrolidin-1-yl)propanoic acid], the pIC50 at human αVβ8 is 6.74; at human αVβ6, 8.85; on human αVβ5, 8.00; at human αVβ3, 8.36; at human αVβ1, 5.19.

As to `Cc1ncc([C@H](CC(=O)O)n2ccc(CCCc3ccc4c(n3)NCCC4)n2)cn1` [Example 54, (S)-3-(2-Methylpyrimidin-5-yl)-3-(3-(3-(5,6,7,8-tetrahydro-1,8-naphthyridin-2-yl)propyl)-1H-pyrazol-1-yl)propanoic acid], the results for the pIC50 on human αVβ6, at human αVβ5 and at human αVβ3 were 7.74, 9.00 and 8.14, respectively.
